Literature values, collected in US10918126B2, “Isotopically modified compounds and their use as food supplements” (Retrotope, Inc., priority 2006, dated 2021).
Like-named read-outs stand apart in the source and are kept apart here.

Columns and labels:
[1] = target: liver alcohol dehydrogenase (ADH); details: ethanol oxidation by ADH to acetaldehyde

In the case of (1-R)[1-^2H2]— ethanol, the “kinetic isotope effect D(V/K)” value ([1]; pH 6) is given as 3 and the “kinetic isotope effect D(V/K)” value ([1]; pH 9) is given as 1.5.
For (1-R)[I—^3H2]— ethanol, the “kinetic isotope effect T(V/K)” value ([1]; pH 6) is listed as 6.5 and the “kinetic isotope effect T(V/K)” value ([1]; pH 9) is listed as 2.5.
For deuterated ethanol, the “mean value of D(V/K)” value (perfused rat liver) is listed as 2.89.
